# Experimental data as given in US20220257698A1, “ANGIOTENSIN TYPE 2 (AT2) RECEPTOR AGONISTS FOR USE IN THE TREATMENT OF CANCER” (LANTHIOPEP B.V., priority 2019, published 2022).
# Assays:
# U87MG glioblastoma CDX = experiment: Subcutaneous U87MG glioblastoma CDX: tumor weight and time of tumor progression; type: in vivo, cd1 nu/nu mice (human GBM cell line); details: for tumor weight [%]: relative to vehicle = 100
# Experimental: Effects of KcAng(1-7) were evaluated in vivo in a subcutaneous GBM xenograft model in nude mice. Insurgence of neurologic phenomena and differences in the survival rates were evaluated. Human GBM cell lines U87MG and U251MG were used. Cell lines were grown in DMEM nutrient mixture supplemented with 10% fetal bovine serum, 1% penicillin/streptomycin, and 25 mM HEPES buffer. All cell lines were cultured at 37° C. in a humidified atmosphere consisting of 5% CO2 and 95% air. Medium was changed every 2 days and the cell morphology was evaluated under microscope daily.
# Six-week-old male athymic nude mice (age 5-7 weeks) were housed with free access to food and water in a temperature-controlled room. Each group is represented by 10 xenograft cd1 nu/nu mice. The mice were injected s.c. in the right distal hind limb with one million of cultured human tumor cell lines suspended in 0.15 mL of 2:1 solution of PBS/Matrigel (Matrigel BD Biosciences). Xenografts were measured every four days with a digital caliper in two perpendicular dimensions. Tumor volume was calculated according to the following formula:
# Tumor volume=(tumor width)×(tumor width)×(tumor length)÷2
# At the end of experiments, mice were euthanized and tumors removed. Weight loss or other signs of distress such as hunched posture were checked during and after treatments.
# Efficacy of treatment was evaluated by: (1) the size of tumors (vehicle control and treated), (2) the relative weight at the end of experiment, and (3) the indirect evaluation of angiogenesis by determining hemoglobin levels.
# In vivo tumor response to treatment was evaluated using the following parameters: (i) Complete response (CR): defined as the disappearance of a measurable lesion, (ii) Partial response (PR): defined as a reduction of greater than 50% of the sum of the products of the cross-sectional diameters of the measurable lesion, (iii) Stable disease (SD): defined as a reduction of less than 50% or an increase of less than 25% in the sum of the products of the cross-sectional diameters of the measurable lesions, (iv) Tumor progression (TP): defined as an increase of greater than […] in the sum of the products of the cross-sectional diameters of the measured lesion, (v) Time to progression (TTP) defining the tumor growth delay. Tumor progression was calculated through the analysis of bioluminescence imaging (BLI) photon counts and when possible through the analyses of tumor volumes calculated by magnetic resonance imaging (MRI), (vi) Disease free survival (DFS) is the time elapsed between the time point at which no luciferase activity is detectable anymore and the death of the animal, (vii) Overall survival (OS) is the time elapsed between tumor inoculation and death of the animal. […] Luciferase transfected cells were used for bioluminescence evaluations.
# Data are presented as mean and standard error of the mean (SEM) or standard deviation (SD). Statistical comparisons between control and treated groups were established by carrying out the Kruskal-Wallis test (a nonparametric one-way analysis of variance) or the Mann-Whitney test (in the case of two groups). The level of significance was corrected by multiplying the P value by the number of comparisons performed (n) according to […] correction. TP, TTP and DFS were analyzed by Kaplan-Meier curves and Gehan's generalized Wilcoxon test. All statistical analyses were undertaken using SPSS 10.0.
# Mice with U87MG cell CDX were randomized at day 0. KcAng(1-7) was injected daily subcutaneously (0.2 μg/kg) starting at day 0 until the (ethical) endpoint maximally at day 42. TMZ was administered at 16 mg/kg during 5 consecutive days, that is from […]. Volumetric evaluation of the tumor was performed every 4 days and tumor weight was measured at the end of the experiment.
# Synergism was determined using the methods described in Clarke et al. Breast Cancer Research and Treatment 46:255-278 (1997).
# Mice with U87MG cell CDX were randomized at day 0. […]
# U251MG glioblastoma CDX = experiment: Subcutaneous U251MG glioblastoma CDX: time of tumor progression; type: in vivo, cd1 nu/nu mice (human GBM cell line); details: KcAng(1-7) 1 μg/kg/d, Losartan 20 mg/kg/d, or both
# Experimental: Effects of KcAng(1-7) were evaluated in vivo in a subcutaneous GBM xenograft model in nude mice. Insurgence of neurologic phenomena and differences in the survival rates were evaluated. Human GBM cell lines U87MG and U251MG were used. Cell lines were grown in DMEM nutrient mixture supplemented with 10% fetal bovine serum, 1% penicillin/streptomycin, and 25 mM HEPES buffer. All cell lines were cultured at 37° C. in a humidified atmosphere consisting of 5% CO2 and 95% air. Medium was changed every 2 days and the cell morphology was evaluated under microscope daily. Six-week-old male athymic nude mice (age 5-7 weeks) were housed with free access to food and water in a temperature-controlled room. Each group is represented by 10 xenograft cd1 nu/nu mice. […] Xenografts were measured every four days with a digital caliper in two perpendicular dimensions. Tumor volume was calculated according to the following formula: In vivo tumor response to treatment was evaluated using the following parameters: […] […] TP, TTP and DFS were analyzed by Kaplan-Meier curves and Gehan's generalized Wilcoxon test. […]
substance,measurement,setting,value
Lys-Asp-Arg-Val-Abu/Ala-Ile-His-Abu/Ala (KDRVAIHA; not fully specified; cyclic thioether (Abu/Ala bridge); VARIANT (5)..(5) /replace=“Abu”; VARIANT (8)..(8) /replace=“Abu”; SITE (1)..(8) /note=“Variant residues given in the sequence have no preference with respect to those in the annotations for variant positions”) [KcAng(1-7)],"Time of tumor progression - TTP, mean (days ± SD)","U87MG glioblastoma CDX; KcAng(1-7) 0.2 μg/kg/d s.c., TMZ 16 mg/kg for 5 days, or both",12.80 ± 0.54 days
same,increase of the time of tumor progression,U87MG glioblastoma CDX; KcAng(1-7) 0.2 μg/kg/d vs vehicle,approximately 2 days
same,"Time of tumor progression - TTP, mean (days ± SEM)","U87MG glioblastoma CDX; KcAng(1-7) 1 μg/kg/d s.c., Losartan 20 mg/kg/d i.p., or both",15.2 ± 0.9 days
same,"Tumor weight, mean (mg ± SEM)","U87MG glioblastoma CDX; KcAng(1-7) 1 μg/kg/d s.c., Losartan 20 mg/kg/day i.p., or both",580 ± 27 mg
same,"Tumor weight, mean (mg ± SD)","U87MG glioblastoma CDX; end of experiment, KcAng(1-7) 0.2 μg/kg/d s.c., TMZ 16 mg/kg for 5 days, or both",830 ± 57 mg
same,tumor weight [%],"U87MG glioblastoma CDX; KcAng(1-7) 0.2 μg/kg/d, TMZ 16 mg/kg, or both",79.8%
same,tumor weight [%],"U87MG glioblastoma CDX; KcAng(1-7) 1 μg/kg/d, Losartan 20 mg/kg/d, or both",55.8%
same,"Time of tumor progression - TTP, mean (days ± SEM)",U251MG glioblastoma CDX,14.4 ± 0.8 days
